Laboratory results from patent US20230339977A1, “SUBSTITUTED HETEROARYL COMPOUND, AND COMPOSITION AND APPLICATION THEREOF” (SUNSHINE LAKE PHARMA CO., LTD., priority 2020, published 2023).
Like-named read-outs stand apart in the source and are kept apart here.

Columns and labels:
CTLL-2 cells = test: Inhibitory effect on CTLL-2 cell proliferation; format: cell-based; conditions: alamar blue, read-out: IC50 (nM) CTLL-2 (h)
Method: CTLL-2, P-STAT3 and TF-1 cells were seeded in a 96-well culture plate at a density of 20,000/well with 90 µL per well, and the blank well was an equal amount of complete medium. 10 ul of different compound dilutions were added to each plate row BC, DE, and FG, and 5% DMSO medium with equal volume of the compound was added to positive wells and negative wells, and the final concentration of DMSO was 0.5%. After incubating in a 37° C. incubator for 20 h, alamar blue was added, the plate was incubated for 4 h, the fluorescence intensity of each well under the conditions of […], 580 nm wavelength was measured, and the IC50 value was calculated.

P-STAT3 = test: Effect of TYK2 inhibitor on P-STAT3 expression in PBMC induced by IFN-α (Table 3, P-STAT3 (h)); format: cell-based; conditions: Homo sapiens; P-STAT3 by ELISA, PBMC stimulated with IFN-α 5000 U/mL
Method: Whole blood was collected from healthy subjects, anticoagulated with heparin sodium, and PBMC (human peripheral blood mononuclear cells) were extracted. PBMC were seeded in 96-well culture plates at a density of 1*106/well. The initial concentration of the positive drug BMS986165 was 1000 nM, after diluting 10 times, the positive drug BMS986165 was diluted 8 concentrations by 3 times; the concentration of the other tested compounds was 333 nM. Positive wells and negative wells were added with the same volume of DMSO as the compound, and the final concentration of DMSO was 0.5%. After the compound was added, the cells were incubated at 37° C. for 1 h, and then stimulated by the addition of IFN-α at a final concentration of 5000 U/mL. An equal volume of medium was added to the negative wells and incubated for 15 min. The cells were centrifuged to remove the supernatant, and lysed, and the P-STAT3 was measured according to the instructions of the ELISA kit, the absorbance was read at 450 nm, and the IC50 value or inhibition rate was calculated.
CTLL-2, P-STAT3 and TF-1 cells were seeded in a 96-well culture plate at a density of 20,000/well with 90 µL per well, and the blank well was an equal amount of complete medium. […]

[1] = Pharmacokinetic evaluation in rats after intravenous injection and oral administration; format: in vivo; conditions: rat, plasma; for AUC(0-t): read-out: PK AUClast; for Cmax: read-out: PK Cmax; for half-life: read-out: PK T½ (converted)
Method: The analytical LC/MS/MS system includes an Agilent 1200 series vacuum degasser, a binary syringe pump, an orifice plate autosampler, a column oven, and an Agilent G6430 triple quadrupole mass spectrometer with an electrospray ionization (ESI) source.
Agilent XDB-C18, 2.1 × 30 mm, 3.5 µM column was used to analysis, 5 µL sample was injected. Analytical conditions: Mobile phases were 0.1% formic acid in water (A) and 0.1% formic acid in methanol (B). The flow rate was 0.4 mL/min.
In addition, Agilent 6330 series LC/MS/MS spectrometer was used for analysis, equipped with G1312A binary syringe pump, G1367A automatic sampler and G1314C UV detector; LC/MS/MS spectrometer used ESI radiation source. Optimum analysis was achieved using standards with appropriate cation model processing and MRM conversion for each analyte. A Capcell MP-C18 column, 100 × 4.6 mm I.D., 5 µM (Phenomenex, Torrance, California, USA) was used during the analysis. Mobile phase was 5 mM ammonium acetate, 0.1% methanol in water (A): 5 mM ammonium acetate, 0.1% methanol in acetonitrile (B) (70/30, v/v); flow rate was 0.6 mL/min; column temperature was maintained at room temperature; 20 µL of sample was injected.
The present invention evaluates the pharmacokinetic studies of the compounds of the present invention in mice, rats, dogs or monkeys. The compounds of the present invention were administered in the form of aqueous solution or 2% HPMC + 1% Tween-80 aqueous solution, 5% DMSO + 5% saline solution, 4% MC or capsule. For intravenous administration, animals were dosed at about 0.5, 0.6, 1 or 2 mg/kg. The oral doses (p.o.) were 5 or 10 mg/kg for rats and mice, and 10 mg/kg for dogs and monkeys. Bloods (0.3 mL) were taken at time points 0.25, 0.5, 1.0, 2.0, 3.0, 4.0, 6.0, 8.0, 12 and 24 h and centrifuged at 3,000 or 4,000 rpm for 10 min. Plasma solutions were collected and stored at -20° C. or -70° C. until LC/MS/MS analysis as described above. […] Table 2 is the experimental results of the pharmacokinetic characteristics of the compounds provided in the examples of the present invention in rats.

JAK1/TYK2 = test: Cell level activity test of JAK1/TYK2 (IFN-α induced STAT3 phosphorylation in PBMC); format: cell-based; conditions: Homo sapiens; P-STAT3 by ELISA in PBMC, compound 1 h, IFN-α 5000 U/mL 15 min; read-out: IC50 nM (JAK 1 /TYK2)
Method: IFN-α can induce the phosphorylation of STAT3 downstream of JAK1/TYK2 in PBMC, and by measuring the level of STAT3 phosphorylation, the activity of the compound on JAK1/TYK2 at the cell level can be reflected.
Whole blood was collected from healthy subjects, anticoagulated with heparin sodium, and PBMC (human peripheral blood mononuclear cells) were extracted. PBMC were seeded in a 96-well culture plates at a density of 1*106/well. Positive wells and negative wells were added with the same volume of DMSO as the compound, and the final concentration of DMSO was 0.5%. The compounds were incubated with the cells at 37° C. for 1 h, and then stimulated by adding IFN-α at a final concentration of 5000 U/mL, an equal volume of medium was added to the negative wells, and incubated for 15 min. The cells were centrifuged to remove the supernatant, then lysed, and P-STAT3 was measured according to the instructions of the ELISA kit, the absorbance was read at 450 nm, and the IC50 value or inhibition rate was calculated.

- IC50 (P-STAT3): 95.8 nM
- AUC(0-t) ([1]; IV 1 mg/kg): 1140 ng·h/mL
- Cmax ([1]; IV 1 mg/kg): 1010 ng/mL
- half-life ([1]; IV 1 mg/kg): 0.971 h
- AUC(0-t) ([1]; PO 5 mg/kg): 9430 ng·h/mL
- Cmax ([1]; PO 5 mg/kg): 1990 ng/mL
- half-life ([1]; PO 5 mg/kg): 2.71 h
- bioavailability ([1]; oral bioavailability, PO 5 mg/kg): 165%
- IC50 (JAK1/TYK2): 95.8 nM
SMILES: CC(=O)Nc1cc2c(-c3ccc4c(n3)C3(CCOC3)OC4)cn(C)c2cn1 (stereo not shown) [Example 2, N-(3-(4,5-Dihydro-2H,5′H-Spiro[Furan-3,7′-Furo[3,4-b]Pyridin]-2′-yl)-1-Methyl-1H-Pyrrolo[2,3-c]Pyridin-5-yl)Acetamide]
- IC50 (CTLL-2 cells): > 10000 nM
